Assay results as given in patent publication US10266549B2, “ULK1 inhibitors and methods using same” (SALK INSTITUTE FOR BIOLOGICAL STUDIES, priority 2014, dated 2019).

Key:
[1] = system: PC3 human prostate cells stably expressing GFP-LC3; test: GFP-LC3 puncta quantification in PC3 cells; type: cell-based; conditions: PC3 GFP-LC3, control siRNAs, 1 μM mTOR inhibitor for 4 hr
Experimental: At 48 hr after RNAi transfection, the cells were treated with 1 μM of the catalytic mTOR inhibitors AZD8055 or INK128 for 4 hr and assessed for the presence of GFP-LC3 puncta. The average number of GFPLC3 puncta and SD for each siRNA and drug treatment are shown. SRC, c-Src; c-Src kinase, CSK.
To test the ability of compound 14 to block autophagy and cell survival, initial studies were performed in A549 lung cancer cells, which are highly sensitive to mTOR inhibition. […] Next, we genetically assessed the requirement for ULK1 versus other kinases inhibited by compound 14 to induce autophagy after pharmacological mTOR inhibition. A robust high-throughput microscopy method for quantifying GFP-LC3 puncta was established using a PC3 prostate-cancer cell line stably expressing a GFP-LC3 construct. Using this assay, we performed a focused RNAi analysis of the top 20 kinases identified in the DiscovRx screen as best binding to compound 14. […] Strikingly, of the 18 kinases tested, only one kinase siRNA, ULK1, nearly fully abolished the LC3 puncta induced by the mTOR inhibitors (FIG. 9D).

A549 lung cancer cells = test: AnnexinV apoptosis analysis in A549 cells with mTOR inhibitor; type: cell-based; conditions: AZD8055 alone, 1 micromolar
Experimental: A549 cells (ATCC #CCL185) and MEFs were seeded at a concentration of 2.5×10^5 cells/mL (i.e., 750,000 cells per 6 cm dish), grown overnight (18 hrs) and treated as indicted in the figure legends. Unless otherwise indicated, “starvation” is EBSS and “control” is DMEM with full serum for indicated timepoints. Samples for western blot were washed once in 1× ice cold PBS and lysed in boiling SDS lysis buffer (10 mM Tris […], 100 mM NaCl, 1% SDS). After trituration, lysates were equilibrated for protein levels using the BCA method (Pierce) and resolved on 8 to 15% SDS-PAGE gels, depending on the size of the protein. PVDF membranes were probed with indicated antibodies overnight according to the manufacturers instructions.
For flow cytometry analysis, cells were collected at the appropriate time point, washed once in PBS, trypsinized and pelleted. For Annexin V staining, cells were washed in 1× Annexin V buffer and treated as described by the Annexin V staining protocol (BD Pharmingen, San Diego, Calif.). Briefly, cells were resuspended in Annexin V buffer to a concentration of one million per mL, 100,000 cells were then stained with 5 μL of phycoerythrin (PE)-conjugated Annexin V antibody (BD Pharmingen, San Diego, Calif.) and 5 μL of 7-amino-actinomycin D (7AAD) and then incubated at room temperature for 15 minutes. 400 μL of Annexin V buffer was then added to each sample with gentle mixing. Stained cells were analyzed using a FACScan flow cytometer (Becton Dickinson, San Jose, Calif.). Flow cytometry data was analyzed using FlowJo 8.6 software (Tree Star Inc., Ashland, Oreg.).
There has been great interest in the role of autophagy in the survival of tumor cells, particular tumor cells faced with metabolic stress from chemotherapies or targeted therapeutics. We next examined whether compound 14 would promote apoptosis in tumor cells similar to the MEFs, selectively under conditions in which autophagy is actively engaged. […] Given that mTOR activity is a dominant regulator of ULK1 activity, and we previously noted that treatment of cells with mTOR catalytic inhibitors was sufficient to induce ULK1 activity, we examined the effect of adding in the ULK1 inhibitor in the context of treatment with mTOR catalytic inhibitors. Using a cell line well-established to be sensitive to mTORC1 inhibition, A549 lung cancer cells, we treated with escalating doses of ULK1 inhibitor while keeping a constant cytostatic growth arrest-inducing 1 micromolar dose of the mTOR catalytic inhibitor AZD8055. We observed that 5 μM compound 14 in combination with AZD8055 triggered apoptosis in 22% of A549 cells compared to 9% of the 5 μM compound 14 alone or 6% of those cells treated with AZD8055 alone. […]

| SMILES | induction in GFP-LC3 puncta formation [1] | apoptosis, % of A549 cells (A549 lung cancer cells) |
| --- | --- | --- |
| COc1ccc(-c2ccc3c(N4CCOC[C@@H]4C)nc(N4CCOC[C@@H]4C)nc3n2)cc1CO [AZD8055, (5-(2,4-bis((S)-3-methylmorpholino)pyrido[2,3-d]pyrimidin-7-yl)-2-methoxyphenyl)methanol, reference compound] | 2 fold | 6% |
| CC(C)n1nc(-c2ccc3oc(N)nc3c2)c2c(N)ncnc21 [INK128, 3-(2-amino-5-benzoxazolyl)-1-(1-methylethyl)-1H-pyrazolo[3,4-d]pyrimidin-4-amine] | 2 fold | – |
